Test results: patent US12517098B2, “Monitoring polysorbate hydrolysis in pharmaceutical formulations using an ultrasensitive extraction-free fatty acid quantitation method” (Regeneron Pharmaceuticals, Inc., priority 2021, dated 2026)

Key:
[1] = Loss of heavy-isotope-labeled fatty acids during incubation (adsorption to container); assay type: physicochemical; conditions: 1% PS20, 200 mg/mL mAb3, 37° C., plastic tubes
Procedure: The hydrolysis of PS20 in mAb formulations used for the fatty acid quantitation method of the invention was optimized by mixing 60 μL of 200 mg/mL mAb-3 (10 mM histidine, pH 6.3) with 0.62 μL, 1.26 μL, 3.2 μL and 6.8 μL 10% PS20 with or without 1.5 μL ISTD mixture (200 μg/mL lauric-d23 acid, 40 μg/mL myristic-d27 acid, and oleic acid-^13C18 in 20% methanol) in Eppendorf plastic tubes (category number 022431064) or Waters glass vials (SKU 600000668CV), […] Incubation samples were analyzed by LC multiple reaction monitoring (LC-MRM) after extraction (Table 2). Incubation conditions were optimized for measuring fatty acid content using LC-MRM after extraction. Fatty acids were extracted from mAb solution using an extraction protocol developed by Honemann et al. with an optimized precipitation buffer and extraction time (Honemann et al.). […] Subsequently, 40 μL of the supernatant was transferred to a 96-well plate, and 5 μL was subjected to LC-MRM for quantitation. […] Elution was performed at 0.4 mL/minute, and peaks at 1-7 minutes were analyzed using an ESI source operating in negative mode, with a gas temperature of 200° C., gas flow of 12 L/minute, nebulizer gas pressure of 20 psi, sheath gas temperature of 300° C., sheath gas flow of 11 L/min, capillary voltage of −3000 V, and nozzle voltage of 500 V. Lauric acid and lauric-d23 acid were monitored at 199.1/199.1 and 222.3/222.3; myristic acid and myristic-d27 acid were monitored at 227.2/227.2 and 254.4/254.4; palmitic acid, oleic acid, oleic acid-^13C18, stearic acid, and linoleic acid were monitored at 255.2/255.2, 281.2/281.2, 299.2/299.2, 283.2/283.2, and 279.2/279.2 with CE 5, respectively. […] Peak integration was performed by Skyline, and fatty acid concentrations were calculated based on a calibration curve created from a spiked-in fatty acid concentration plot against To investigate why fatty acids were lost during incubation, isotope-labeled fatty acids were employed. […]

[2] = Solubility of free fatty acid in the formulation; assay type: physicochemical; conditions: mAb formulation, aqueous with cosolvent or surfactant or cyclodextrin

| fatty acid lost after 6-day incubation [1] [%] | SMILES | solubility [2] [µg/mL] |
| --- | --- | --- |
| 34 | CCCCCCCCCCCCCC(=O)O [myristic acid] |  |
| 15 | CCCCCCCC/C=C\CCCCCCCC(=O)O [oleic acid] |  |

| SMILES | fatty acid lost after 6-day incubation [1] [%] | solubility [2] [µg/mL] |
| --- | --- | --- |
| CCCCCCCCCCCC(=O)O [lauric acid] | 50 | > 20 |
